Read-outs that look alike come from different tables or passages of the source.
Legend:
Assay type in all cases: in vivo
[1] = tested on: Erysiphe graminis tritici (Wheat); assay: Foliar fungal disease test on plants: Erysiphe graminis tritici (Wheat); conditions: plants inoculated 24 hours before treatment
[2] = tested on: Septoria nodorum (Wheat); assay: Foliar fungal disease test on plants: Septoria nodorum (Wheat); conditions: one or two days before inoculation
[3] = tested on: Puccinia recondita (Wheat); assay: Foliar fungal disease test on plants: Puccinia recondita (Wheat)
[4] = tested on: Plasmopara viticola (Vines); assay: Foliar fungal disease test on plants: Plasmopara viticola (Vines); conditions: one or two days before inoculation
[5] = tested on: Phytophthora infestans (Tomatoes); conditions: one or two days before inoculation
[6] = tested on: Pyricularia oryzae (Rice); conditions: one or two days before inoculation
[7] = tested on: Venturia inaequalis (Apples); assay: Foliar fungal disease test on plants: Venturia inaequalis (Apples); conditions: one or two days before inoculation
[8] = tested on: Thanatephorus cucumeries (Rice); assay: Foliar fungal disease test on plants: Thanatephorus cucumeries (Rice); conditions: one or two days before inoculation
[9] = 100 ppm a.i. foliar spray or root drench (approx. 40 ppm in dry soil)
[10] = 100 ppm a.i. foliar spray or root drench, plants inoculated with Puccinia recondita 48 hours before treatment
[11] = 10 ppm foliar spray only, plants inoculated with Puccinia recondita 48 hours before treatment

Row | Compound | POCO (Percentage of Control) disease level, Erysiphe graminis tritici (Wheat) [1, 9] | POCO (Percentage of Control) disease level, Septoria nodorum (Wheat) [2, 9] | POCO (Percentage of Control) disease level, Puccinia recondita (Wheat) [3, 10] | POCO (Percentage of Control) disease level, Plasmopara viticola (Vines) [4, 9] | POCO (Percentage of Control) disease level, Phytophthora infestans (Tomatoes) [5, 9] | POCO (Percentage of Control) disease level, Pyricularia oryzae (Rice) [6, 9] | POCO (Percentage of Control) disease level, Venturia inaequalis (Apples) [7, 9] | POCO (Percentage of Control) disease level, Thanatephorus cucumeries (Rice) [8, 9] | POCO (Percentage of Control) disease level, Erysiphe graminis tritici (Wheat) ([1]; 10 ppm foliar spray only) | POCO (Percentage of Control) disease level, Septoria nodorum (Wheat) ([2]; 10 ppm foliar spray only) | POCO (Percentage of Control) disease level, Puccinia recondita (Wheat) [3, 11] | POCO (Percentage of Control) disease level, Plasmopara viticola (Vines) ([4]; 10 ppm foliar spray only) | POCO (Percentage of Control) disease level, Phytophthora infestans (Tomatoes) ([5]; 10 ppm foliar spray only) | POCO (Percentage of Control) disease level, Pyricularia oryzae (Rice) ([6]; 10 ppm foliar spray only) | POCO (Percentage of Control) disease level, Venturia inaequalis (Apples) ([7]; 10 ppm foliar spray only) | POCO (Percentage of Control) disease level, Thanatephorus cucumeries (Rice) ([8]; 10 ppm foliar spray only) | POCO (Percentage of Control) disease level, Puccinia recondita (Wheat) ([3]; 100 ppm a.i. foliar spray or root drench (approx. 40 ppm in dry soil), one or two days before inoculation)
1 | COC=C(C(=O)OC)c1ccccc1COC(=O)Nc1ccccc1Cl [12 (1)] | 0 (0 = 0% disease present) | 10 (10 = 5.1-10% disease present) | 10+ (10 = 5.1-10% disease present) | 0 (0 = 0% disease present) | 30 (30 = 20.1-30% disease present) | 5 (5 = 3.1-5% disease present) | 0 (0 = 0% disease present) | 30 (30 = 20.1-30% disease present) | – | – | – | – | – | – | – | – | –
2 | COC=C(C(=O)OC)c1ccccc1OC(=O)N(C)c1ccc(F)cc1F [24 (18)] | – | – | – | – | – | – | – | – | 60 (60 = 30.1-60% disease present) | 90 (90 and 94 = 60.1-100% disease present) | 90+ (90 and 94 = 60.1-100% disease present) | 90 (90 and 94 = 60.1-100% disease present) | 90 (90 and 94 = 60.1-100% disease present) | 90 (90 and 94 = 60.1-100% disease present) | 90 (90 and 94 = 60.1-100% disease present) | 90 (90 and 94 = 60.1-100% disease present) | –
3 | CNC(=O)C(=NOC)c1ccccc1COC(=O)Nc1ccccc1 [5 (65)] | – | – | – | – | – | – | – | – | 30 (30 = 20.1-30% disease present) | 90 (90 and 94 = 60.1-100% disease present) | 90+ (90 and 94 = 60.1-100% disease present) | 90 (90 and 94 = 60.1-100% disease present) | 90 (90 and 94 = 60.1-100% disease present) | 30 (30 = 20.1-30% disease present) | 90 (90 and 94 = 60.1-100% disease present) | 90 (90 and 94 = 60.1-100% disease present) | –
4 | COC=C(C(=O)OC)c1ccccc1OC(=O)Nc1ccc(F)cc1F [24 (17)] | 0 (0 = 0% disease present) | 0 (0 = 0% disease present) | 0+ (0 = 0% disease present) | 0 (0 = 0% disease present) | 0 (0 = 0% disease present) | 0 (0 = 0% disease present) | 0 (0 = 0% disease present) | 60 (60 = 30.1-60% disease present) | – | – | – | – | – | – | – | – | –
5 | COC=C(C(=O)OC)c1ccccc1COC(=O)N(C)c1ccccc1C(=O)OC [33 (2)] | 0 (0 = 0% disease present) | 90 (90 and 94 = 60.1-100% disease present) | 90+ (90 and 94 = 60.1-100% disease present) | 10 (10 = 5.1-10% disease present) | 90 (90 and 94 = 60.1-100% disease present) | 30 (30 = 20.1-30% disease present) | 60 (60 = 30.1-60% disease present) | 60 (60 = 30.1-60% disease present) | – | – | – | – | – | – | – | – | –
6 | COC=C(C(=O)OC)c1ccccc1COC(=O)N1CCCCC1 [2 (133)] | 60 (60 = 30.1-60% disease present) | 90 (90 and 94 = 60.1-100% disease present) | 90+ (90 and 94 = 60.1-100% disease present) | 5 (5 = 3.1-5% disease present) | 90 (90 and 94 = 60.1-100% disease present) | 20 (20 and 24 = 10.1-20% disease present) | 5 (5 = 3.1-5% disease present) | 90 (90 and 94 = 60.1-100% disease present) | – | – | – | – | – | – | – | – | –
7 | COC=C(C(=O)OC)c1ccccc1COC(=O)N(C)c1ccccc1OC [16 (2)] | 0 (0 = 0% disease present) | 5 (5 = 3.1-5% disease present) | 10+ (10 = 5.1-10% disease present) | 0 (0 = 0% disease present) | 20 (20 and 24 = 10.1-20% disease present) | 0 (0 = 0% disease present) | 1 (1 = 0.1-1% disease present) | 5 (5 = 3.1-5% disease present) | – | – | – | – | – | – | – | – | –
8 | COC=C(C(=O)OC)c1ccccc1COC(=O)NCc1ccccc1 [4 (1)] | 90 (90 and 94 = 60.1-100% disease present) | 30 (30 = 20.1-30% disease present) | – | 20 (20 and 24 = 10.1-20% disease present) | 60 (60 = 30.1-60% disease present) | 90 (90 and 94 = 60.1-100% disease present) | 60 (60 = 30.1-60% disease present) | 90 (90 and 94 = 60.1-100% disease present) | – | – | – | – | – | – | – | – | 30 (30 = 20.1-30% disease present)
9 | C=CCNC(=O)OCc1ccccc1C(=COC)C(=O)OC [20 (1)] | 20 (20 and 24 = 10.1-20% disease present) | 90 (90 and 94 = 60.1-100% disease present) | 3+ (3 = 1.1-3% disease present) | 90 (90 and 94 = 60.1-100% disease present) | 60 (60 = 30.1-60% disease present) | 20 (20 and 24 = 10.1-20% disease present) | 5 (5 = 3.1-5% disease present) | 90 (90 and 94 = 60.1-100% disease present) | – | – | – | – | – | – | – | – | –
10 | COC=C(C(=O)OC)c1ccccc1COC(=O)Nc1ccc(F)c(F)c1 [28 (1)] | – | – | – | – | – | – | – | – | 90 (90 and 94 = 60.1-100% disease present) | 30 (30 = 20.1-30% disease present) | 5+ (5 = 3.1-5% disease present) | 30 (30 = 20.1-30% disease present) | 90 (90 and 94 = 60.1-100% disease present) | 0 (0 = 0% disease present) | 60 (60 = 30.1-60% disease present) | 90 (90 and 94 = 60.1-100% disease present) | –
11 | CCN(C(=O)OCc1ccccc1C(=COC)C(=O)OC)c1ccc(F)cc1F [24 (3)] | 0 (0 = 0% disease present) | 0 (0 = 0% disease present) | 0+ (0 = 0% disease present) | 0 (0 = 0% disease present) | 60 (60 = 30.1-60% disease present) | 10 (10 = 5.1-10% disease present) | 0 (0 = 0% disease present) | 0 (0 = 0% disease present) | – | – | – | – | – | – | – | – | –
12 | COC=C(C(=O)OC)c1ccccc1COC(=O)Nc1ccc(F)c([N+](=O)[O-])c1 [105 (1)] | 30 (30 = 20.1-30% disease present) | 90 (90 and 94 = 60.1-100% disease present) | 90+ (90 and 94 = 60.1-100% disease present) | 90 (90 and 94 = 60.1-100% disease present) | 90 (90 and 94 = 60.1-100% disease present) | 60 (60 = 30.1-60% disease present) | 20 (20 and 24 = 10.1-20% disease present) | 60 (60 = 30.1-60% disease present) | – | – | – | – | – | – | – | – | –
13 | COC=C(C(=O)OC)c1ccccc1COC(=O)N1CCSCC1 [4 (133)] | 90 (90 and 94 = 60.1-100% disease present) | 90 (90 and 94 = 60.1-100% disease present) | 60+ (60 = 30.1-60% disease present) | 0 (0 = 0% disease present) | 90 (90 and 94 = 60.1-100% disease present) | 90 (90 and 94 = 60.1-100% disease present) | 10 (10 = 5.1-10% disease present) | 60 (60 = 30.1-60% disease present) | – | – | – | – | – | – | – | – | –

Reference: patent US6465457B1 (priority 1991, dated 2002)
